# Legend:
# Human GLP-1R [1] = target: T1, Human GLP-1R (Homo sapiens, UniProt P43220); experiment: cAMP stimulation in CHO-K1 cells expressing human GLP-1R (AlphaScreen); format: cell-based; settings: read-out: functional potency (EC50) in CHO-K1 cells, GLP-1R
# GLP-1R [2] = target: T2, GLP-1R (Mus musculus, UniProt O35659); experiment: Acute gastric emptying (acetaminophen) in lean mice; format: in vivo
# T2 construct: The acute potency of BI 456906 in engaging the GLP-1R was tested in lean mice after single dosing; tissue Janvier Labs; host or cells: whole animal: lean wild-type NMRI, C57BL6/J or B6J mice
# T2 sequence (O35659 22-463): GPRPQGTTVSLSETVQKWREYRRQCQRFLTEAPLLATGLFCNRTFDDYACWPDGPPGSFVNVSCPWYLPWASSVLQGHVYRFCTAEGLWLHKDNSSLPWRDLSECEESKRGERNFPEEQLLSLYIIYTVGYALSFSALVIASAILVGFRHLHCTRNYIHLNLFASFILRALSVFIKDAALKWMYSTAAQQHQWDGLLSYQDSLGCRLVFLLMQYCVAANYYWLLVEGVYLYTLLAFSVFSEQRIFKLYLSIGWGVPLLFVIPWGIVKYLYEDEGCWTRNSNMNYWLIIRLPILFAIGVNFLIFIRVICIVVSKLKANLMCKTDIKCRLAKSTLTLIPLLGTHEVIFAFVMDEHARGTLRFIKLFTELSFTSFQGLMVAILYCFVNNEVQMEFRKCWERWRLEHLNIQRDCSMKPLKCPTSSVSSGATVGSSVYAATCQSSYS
# Description: After 60 min, ex vivo assays assessing acetaminophen, blood glucose, and terminal exposure were carried out. Acetaminophen was measured using an automated analyzer (Cobas Integra 400; Roche, Rotkreuz, Switzerland). […] ED50 values were calculated in GraphPad Prism 9 using the nonlinear fit tool.
# [3] = Pharmacokinetics in Beagle dogs; format: in vivo; settings: dog, SC injection, 10 nmol/kg, male Beagle dogs, N = 3, plasma, LC/MS/MS (Table S1)
# Description: (§1) For pharmacokinetic analysis, male C57BL/6NRj mice (Janvier, France) were given a single intravenous (IV) or subcutaneous (SC) BI 456906 dose (20 nmol/kg; N = 3 per route). In addition, male Beagle dogs received an IV or SC dose of 5 nmol/kg or 10 nmol/kg (N = 3) BI 456906, respectively. Plasma samples were generated at different time points post dosing and stored at −20 °C until further analysis. Plasma concentrations of BI 456906 were measured using a liquid chromatography/tandem mass spectrometry (LC/MS/MS) method with a calibration range of 0.5–1000 nM on a QTRAP 6500+ (Sciex, Framingham, MA, USA). Samples were pre-treated with ethanol for protein precipitation before the analysis.
# GLP-1R [4] = target: T2, GLP-1R; experiment: Inhibition of acute food intake in lean NMRI mice; format: in vivo; settings: single SC dose, 24 h food intake
# Description: The room temperature was controlled at 21 °C ± 1 °C, with 60% ± 20% humidity. […] Six-week-old male mice were randomized into treatment groups based on food intake and bodyweight (n = 8–10 per group). […] ED50 values were calculated in GraphPad Prism 9 using the nonlinear fit tool.
# endogenous mouse GLP-1R = target: T3, endogenous mouse GLP-1R (Mus musculus, UniProt O35659); experiment: cAMP stimulation in mouse insulinoma MIN6 cells; format: cell-based
# T3 construct: The EC50 for the endogenous mouse GLP-1R was assessed in the insulinoma cell line MIN6; endogenous in cells; host or cells: MIN6 mouse insulinoma cells
# T3 sequence (O35659 22-463): T2 sequence (O35659 22-463)
# endogenous GCGR [5] = target: T4, endogenous GCGR (Mus musculus, UniProt Q61606); experiment: cAMP stimulation in primary mouse hepatocytes; format: cell-based; settings: 0.1% BSA, Figure 1B, read-out: cAMP pEC50±SD, Mouse Hepatocytes (converted)
# T4 construct: endogenous in cells; host or cells: primary mouse hepatocytes
# endogenous GCGR [6] = target: T5, endogenous GCGR (Homo sapiens, UniProt P47871); experiment: cAMP stimulation in primary human hepatocytes; format: cell-based; settings: 0.1% BSA, Figure 1B, read-out: cAMP pEC50±SD, Human Hepatocytes (converted)
# T5 construct: endogenous in cells; host or cells: primary human hepatocytes
# [7] = Energy expenditure study in diet-induced obese mice (indirect calorimetry, telemetry); format: in vivo
# Description: Male C57BL/6J mice were obtained from Charles River Laboratories (Sulzfeld, Germany) at age 6–7 weeks. Animals were housed in groups of five in individually ventilated cages with a 12 h light/dark cycle (06:00–18:00) and were acclimatized for 1 week with ad libitum feeding. Animals were then fed a 45% HFD for 18 or 30 weeks, before randomization to groups with similar average bodyweight at Day −1. Animals were dosed QD with SC vehicle (25 mM phosphate-buffered saline) or BI 456906 (5, 10, or 20 nmol/kg) for 9 days, with energy metabolism, activity, and core body temperature measured each day. On Day 10, mice were sacrificed by cervical dislocation after a final bleeding by puncture of the retrobulbar venous plexus.
# Energy metabolism was measured by indirect calorimetry. […] The mass flow of air through the respiratory cages and the concentrations of O2 and CO2 in inspired and expired air were measured every 10 min. […] Energy expenditure was analyzed by ANCOVA (see 2.16) for animals kept in single housing (dose groups 5 and 10 nmol/kg), applying statistical analysis using a general linear model framework including bodyweight as a covariate. […] Therefore, the regression-based ANCOVA was not calculated. Core body temperature and activity were measured by sensors (model 10TA10TA-F10; Data Sciences International, New Brighton, MA, USA) implanted in the peritoneal cavities. […]
# endogenous GCGR [8] = target: T6, endogenous GCGR (Rattus norvegicus, UniProt P30082); experiment: cAMP stimulation in primary rat hepatocytes; format: cell-based; settings: 0.1% BSA, Figure 1B, read-out: cAMP pEC50±SD, Rat Hepatocytes (converted)
# T6 construct: endogenous in cells; host or cells: primary rat hepatocytes
# Human GCGR [9] = target: T7, Human GCGR (Homo sapiens, UniProt P47871); experiment: cAMP stimulation in CHO-K1 cells expressing human GCGR (AlphaScreen); format: cell-based; settings: read-out: functional potency (EC50) in CHO-K1 cells, GCGR
# GLP-1R [10] = target: T2, GLP-1R; experiment: Intraperitoneal glucose tolerance test in lean mice, single dosing; format: in vivo; settings: read-out: ED50 ipGTT
# Description: Pre-treatment blood glucose was measured at −5 h. […] Baseline blood glucose was measured at −1 h, and then an intraperitoneal bolus of 2 g/kg glucose was applied at 0 h. Blood glucose was measured at 0, 15, 30, 60, and 120 min, and compound exposure was measured at 140 min.
# (§2) ED50 values were calculated in GraphPad Prism 9 using the nonlinear fit tool.
# Pharmacokinetics in mice = format: in vivo
# Description: as §1
# Human GCGR [11] = target: T7, Human GCGR; experiment: CRE-induced luciferase activity, HEK293 CRE-luc2P cells, human GCGR, in plasma; format: cell-based; settings: for EC50: n = 3
# GCGR = target: T8, GCGR (Rattus norvegicus, UniProt P30082); experiment: Inhibition of glycogen synthesis in primary rat hepatocytes (14C-glucose incorporation); format: cell-based; settings: 0.1% BSA, 22.5 mM glucose, 180 min, Figure 1B, read-out: GSi pIC50±SD, Rat Hepatocytes (converted)
# T8 construct: endogenous in cells; host or cells: primary rat hepatocytes
# Human GLP-1R [12] = target: T1, Human GLP-1R; experiment: CRE-induced luciferase activity, HEK293 CRE-luc2P cells, human GLP-1R, in plasma; format: cell-based; settings: n = 3
# GLP-1R [13] = target: T2, GLP-1R; experiment: Oral glucose tolerance test in lean mice, single dosing; format: in vivo
# Description: Mice were then fasted from −10 h, before bolus ingestion of glucose (2 g/kg) at 0 h. Blood glucose was measured at 0, 15, 30, 60, and 120 min, and compound exposure was measured at 120 min. In both experiments, glucose was measured in whole blood using a commercially available glucometer (GlucoSmart Swing) with test strips (MSP bodmann GmbH, Bobingen, Germany). Data are represented as mean ± standard error of mean (SEM) and were compared using GraphPad Prism 9 using two-way ANOVA, followed by Dunnett’s method for multiple comparisons versus vehicle. Significant differences were identified at p < 0.05.
# as §2
# Human GCGR [14] = target: T7, Human GCGR; experiment: Ex vivo bioactivity assay, HEK cells with human GCGR and CRE-luciferase, 100% mouse plasma; settings: DIO mice, plasma at study end, maximal dose of 30 nmol/kg
# Human GLP-1R [15] = target: T1, Human GLP-1R; experiment: Ex vivo bioactivity assay, HEK cells with human GLP-1R and CRE-luciferase, 100% mouse plasma
# [16] = target: human glucagon-like peptide-1 receptor (human) (UniProt P43220)
# [17] = target: human glucagon receptor (human) (UniProt P47871)
# [18] = target: human glucagon-like peptide-1 receptor (human) (UniProt P43220); remark: listed apart in the source
# [19] = target: human glucagon receptor (human) (UniProt P47871); remark: listed apart in the source
# [20] = target: endogenous mouse GLP-1R (mouse (endogenous in MIN6)) (UniProt O35659)
# T7 sequence (P47871 26-477): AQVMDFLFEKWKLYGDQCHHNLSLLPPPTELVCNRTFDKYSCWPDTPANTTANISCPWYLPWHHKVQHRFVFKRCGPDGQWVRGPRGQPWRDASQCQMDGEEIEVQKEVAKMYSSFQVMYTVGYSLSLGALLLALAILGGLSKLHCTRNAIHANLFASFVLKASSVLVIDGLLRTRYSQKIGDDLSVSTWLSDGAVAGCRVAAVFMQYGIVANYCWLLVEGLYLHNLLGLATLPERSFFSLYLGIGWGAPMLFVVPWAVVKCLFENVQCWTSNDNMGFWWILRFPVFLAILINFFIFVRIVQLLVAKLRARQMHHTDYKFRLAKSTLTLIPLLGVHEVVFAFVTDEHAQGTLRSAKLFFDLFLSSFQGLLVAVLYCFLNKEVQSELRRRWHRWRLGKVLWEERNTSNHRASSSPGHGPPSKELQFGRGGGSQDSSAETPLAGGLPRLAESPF
# Chain of human glucagon receptor (human) (P47871 26-477): as above
# Chain of human glucagon-like peptide-1 receptor (human) (P43220 24-463): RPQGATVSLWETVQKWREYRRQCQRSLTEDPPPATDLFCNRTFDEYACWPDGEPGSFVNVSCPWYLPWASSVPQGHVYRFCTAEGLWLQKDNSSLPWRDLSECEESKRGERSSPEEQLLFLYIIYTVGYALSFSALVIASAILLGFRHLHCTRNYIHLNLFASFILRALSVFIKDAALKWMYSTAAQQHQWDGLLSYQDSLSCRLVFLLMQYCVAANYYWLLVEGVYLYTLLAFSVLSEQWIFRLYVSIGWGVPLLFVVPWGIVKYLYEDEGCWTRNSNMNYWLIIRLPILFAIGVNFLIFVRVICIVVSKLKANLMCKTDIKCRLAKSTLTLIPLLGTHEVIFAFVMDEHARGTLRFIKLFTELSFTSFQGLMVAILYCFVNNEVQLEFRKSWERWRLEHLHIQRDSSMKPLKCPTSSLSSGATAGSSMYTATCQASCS
# T1 sequence (P43220 24-463): as above
# T5 sequence (P47871 26-477): as the sequence (P47871 26-477) above
# T8 sequence (P30082 27-485): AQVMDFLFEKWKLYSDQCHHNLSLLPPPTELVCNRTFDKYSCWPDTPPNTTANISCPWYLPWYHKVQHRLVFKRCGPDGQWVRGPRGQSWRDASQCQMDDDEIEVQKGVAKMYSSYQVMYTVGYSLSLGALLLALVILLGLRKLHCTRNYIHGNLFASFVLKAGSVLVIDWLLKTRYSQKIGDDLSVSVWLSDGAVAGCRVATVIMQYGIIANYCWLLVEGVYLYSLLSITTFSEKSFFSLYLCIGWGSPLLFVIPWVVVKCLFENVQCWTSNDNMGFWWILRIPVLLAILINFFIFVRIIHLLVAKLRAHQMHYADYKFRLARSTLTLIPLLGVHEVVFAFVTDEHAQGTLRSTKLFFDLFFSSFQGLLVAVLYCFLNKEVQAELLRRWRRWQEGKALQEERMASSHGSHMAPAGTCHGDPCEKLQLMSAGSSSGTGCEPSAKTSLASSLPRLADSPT
# T6 sequence (P30082 27-485): as above
# T4 sequence (Q61606 27-485): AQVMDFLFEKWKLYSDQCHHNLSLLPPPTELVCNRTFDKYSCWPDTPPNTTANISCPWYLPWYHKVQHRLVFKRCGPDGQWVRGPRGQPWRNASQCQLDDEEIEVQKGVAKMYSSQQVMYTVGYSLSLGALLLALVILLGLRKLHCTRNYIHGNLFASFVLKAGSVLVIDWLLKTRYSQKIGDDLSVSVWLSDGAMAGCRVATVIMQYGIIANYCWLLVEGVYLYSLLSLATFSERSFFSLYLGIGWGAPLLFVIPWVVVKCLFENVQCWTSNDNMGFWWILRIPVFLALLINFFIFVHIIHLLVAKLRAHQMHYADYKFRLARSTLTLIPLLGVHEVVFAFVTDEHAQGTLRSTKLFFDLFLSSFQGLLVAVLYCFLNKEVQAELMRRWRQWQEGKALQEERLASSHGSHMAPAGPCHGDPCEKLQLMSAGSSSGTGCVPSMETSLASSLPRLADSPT
compound,measurement,setting,value
CC[C@H](C)[C@H](NC(=O)[C@H](Cc1ccccc1)NC(=O)[C@H](CC(=O)O)NC(=O)[C@H](CCCCN)NC(=O)[C@H](C)NC(=O)[C@H](C)NC(=O)[C@H](CCCNC(=N)N)NC(=O)[C@H](CCC(=O)O)NC(=O)[C@H](CC(=O)O)NC(=O)[C@H](CC(C)C)NC(=O)[C@H](Cc1ccc(O)cc1)NC(=O)[C@H](CCCCN)NC(=O)[C@H](CO)NC(=O)[C@H](Cc1ccc(O)cc1)NC(=O)[C@H](CC(=O)O)NC(=O)[C@H](CO)NC(=O)[C@@H](NC(=O)[C@H](Cc1ccccc1)NC(=O)[C@@H](NC(=O)CNC(=O)[C@H](CCC(N)=O)NC(=O)C1(NC(=O)[C@@H](N)Cc2c[nH]cn2)CCC1)[C@@H](C)O)[C@@H](C)O)C(=O)N[C@@H](CCCCNC(=O)CNC(=O)CNC(=O)[C@H](CO)NC(=O)CNC(=O)[C@H](CO)NC(=O)CNC(=O)CC[C@H](NC(=O)CCCCCCCCCCCCCCCCC(=O)O)C(=O)O)C(=O)N[C@@H](Cc1c[nH]c2ccccc12)C(=O)N[C@@H](CC(C)C)C(=O)N[C@@H](CCC(=O)O)C(=O)N[C@@H](CO)C(=O)N[C@@H](C)C(N)=O [BI 456906],EC50,Human GLP-1R [1],330 pM
same,ED50,"GLP-1R [2]; mouse, sc",0.041 µmol/kg
same,"inhibition of gastric emptying, effective doses (in words)","GLP-1R [2]; reduced acetaminophen excursion, single SC dose, lean mice",effective only at higher doses of 100 and 300 nmol/kg
same,Tmax,[3],51 h
same,MRT,[3]; read-out: mean residence time,140 h
same,ED50,GLP-1R [4],0.09 µmol/kg
same,EC50,endogenous mouse GLP-1R,360 pM
same,EC50,endogenous GCGR [5],407000 pM
same,EC50,endogenous GCGR [6],537000 pM
same,energy expenditure (in words),"[7]; DIO mice, 5, 10 or 20 nmol/kg SC QD for 9 days, indirect calorimetry",dose-dependent increase in energy expenditure
same,core body temperature and activity (in words),"[7]; DIO mice, therapeutic doses, implanted sensors",did not increase core body temperature or activity
same,EC50,endogenous GCGR [8],18600 pM
same,EC50,Human GCGR [9],520 pM
same,ED50,GLP-1R [10],0.004 µmol/kg
same,terminal half-life in mouse plasma compared with semaglutide (in words),Pharmacokinetics in mice; mouse pharmacokinetic profiles (Table S1),longer terminal half-life
same,Tmax,"Pharmacokinetics in mice; mouse, SC injection, 20 nmol/kg single dose, male C57BL/6NRj mice, N = 3, plasma, LC/MS/MS (Table S1)",7 h
same,MRT,"Pharmacokinetics in mice; mouse, SC injection, 20 nmol/kg single dose, male C57BL/6NRj mice, N = 3, plasma, LC/MS/MS (Table S1), read-out: mean residence time",44 h
same,fold less potent at the GCGR in relation to endogenous glucagon,Human GCGR [11]; 0.5% human and mouse plasma,~6 fold
same,EC50,"Human GCGR [11]; Human GCGR HEK293 Cre-Luc EC50, Human Plasma 0.5%, 0.5% human plasma in KRBH, 4 h 37 °C",290 pM
same,EC50,"Human GCGR [11]; Human GCGR HEK293 Cre-Luc EC50, Human Plasma 100%, 100% human plasma, 4 h 37 °C",8300 pM
same,EC50,"Human GCGR [11]; Human GCGR HEK293 Cre-Luc EC50, Mouse Plasma 0.5%, 0.5% mouse plasma in KRBH, 4 h 37 °C",170 pM
same,EC50,"Human GCGR [11]; Human GCGR HEK293 Cre-Luc EC50, Mouse Plasma 100%, 100% mouse plasma, 4 h 37 °C",16000 pM
same,EC50,"Human GCGR [11]; Human GCGR HEK293 Cre-Luc pEC50±SD, Human Plasma 0.5%, 0.5% human plasma",288 pM
same,EC50,"Human GCGR [11]; Human GCGR HEK293 Cre-Luc pEC50±SD, Human Plasma 100%, 100% human plasma",8320 pM
same,EC50,"Human GCGR [11]; Human GCGR HEK293 Cre-Luc pEC50±SD, Mouse Plasma 0.5%, 0.5% mouse plasma",170 pM
same,EC50,"Human GCGR [11]; Human GCGR HEK293 Cre-Luc pEC50±SD, Mouse Plasma 100%, 100% mouse plasma",15500 pM
same,IC50,GCGR,437 pM
same,EC50,"Human GLP-1R [12]; Human GLP-1R HEK293 Cre-Luc EC50, Mouse Plasma 100%, 100% mouse plasma, 4 h 37 °C",1600 pM
same,EC50,"Human GLP-1R [12]; Human GLP-1R HEK293 Cre-Luc pEC50±SD, Human Plasma 0.5%, 0.5% human plasma",14.8 pM
same,EC50,"Human GLP-1R [12]; Human GLP-1R HEK293 Cre-Luc pEC50±SD, Human Plasma 100%, 100% human plasma",1000 pM
same,EC50,"Human GLP-1R [12]; Human GLP-1R HEK293 Cre-Luc pEC50±SD, Mouse Plasma 0.5%, 0.5% mouse plasma",7.59 pM
same,EC50,"Human GLP-1R [12]; Human GLP-1R HEK293 Cre-Luc pEC50±SD, Mouse Plasma 100%, 100% mouse plasma",1620 pM
same,ED50,GLP-1R [13],0.0021 µmol/kg
same,"ex vivo bioequivalence over EC50, GCGR",Human GCGR [14],< 100 fold
same,EC50,Human GLP-1R [15],2400 pM
same,"ex vivo bioequivalence over EC50, GLP-1R","Human GLP-1R [15]; DIO mice, plasma at study end, maximal dose of 30 nmol/kg",less than 1000 fold
BI 456906 (peptide),"EC50 in the CRE-luciferase assay, HEK293 CRE-luc2P cells expressing recombinant GLP-1R, 100% human plasma",[16],1000 pM
same,"EC50 in the CRE-luciferase assay, HEK293 CRE-luc2P cells expressing recombinant GLP-1R, 100% mouse plasma",[16],1600 pM
same,"EC50 in the CRE-luciferase assay, HEK293 CRE-luc2P cells expressing recombinant GCGR, 0.5% human plasma",[17],290 pM
same,"EC50 in the CRE-luciferase assay, HEK293 CRE-luc2P cells expressing recombinant GCGR, 0.5% mouse plasma",[17],170 pM
same,"EC50 in the CRE-luciferase assay, HEK293 CRE-luc2P cells expressing recombinant GCGR, 100% human plasma",[17],8300 pM
same,"EC50 in the CRE-luciferase assay, HEK293 CRE-luc2P cells expressing recombinant GCGR, 100% mouse plasma",[17],16000 pM
same,"EC50 of cAMP generation (AlphaScreen cAMP assay), CHO-K1 cells expressing human GLP-1R, 0.1% BSA",[18],330 pM
same,"EC50 of cAMP generation (AlphaScreen cAMP assay), CHO-K1 cells expressing human GCGR, 0.1% BSA",[19],520 pM
same,"EC50 of cAMP generation, mouse insulinoma MIN6 cells (endogenous receptor)",[20],360 pM
glucagon-like peptide-1,"EC50 of cAMP generation, mouse insulinoma MIN6 cells (endogenous receptor)",[20],60 pM

# — PMC9679702, “BI 456906: Discovery and preclinical pharmacology of a novel GCGR/GLP-1R dual agonist with robust anti-obesity efficacy” (Molecular Metabolism, 2022)
